From US9951010B2, “Compounds as CRTH2 antagonist and uses thereof” (SUNSHINE LAKE PHARMA CO., LTD., priority 2014, dated 2018) come the findings set out here.

A short description of one series: Detection of PK in rats. The format is in vivo. The conditions noted are these: rat, plasma. The method, then: The analysis was performed using a 4000 QTRAPP series LC/MS/MS mass spectrometer equipped with Agilent 1200 dual injection pumps, 1290 automatic sampler, column oven and ESI source, detecting by the negative ion MRM mode. Waters Xbridge C18 column was used in the analysis, and the mobile phase consisted of phase (A) (2 mM ammonium formate+0.1% aqueous ammonia solution) and phase (B) (2 mM ammonium formate+0.1% ammonia methanol solution), the flow rate was 0.4 mL/min, column temperature was 40° C., the amount of injection was 3 μL.
The male Beagle dogs or rats were administered with the compound of the invention by intravenous injection (0.4 mg/Kg) and gavage (1 mg/Kg) respectively, the blood samples were collected at the time point of 0.083, 0.25, 0.5, 1, 2, 4, 6, 8, 10, 24 and 36 h and then centrifuged to obtain plasma samples. The compound concentrations in plasma samples at various times were detected by LC/MS/MS (the method described in biologic example 3), the main pharmacokinetic parameters were calculated, and pharmacokinetic properties of the compounds of the invention in Beagle dogs or rats were evaluated.

The subject of series [1] is eosinophilia in airway of Wistar rats induced by DK-PGD2. Put plainly: Eosinophilia in airway of Wistar rats induced by DK-PGD2, cell count in BALF. Particulars: for inhibitory effects on the total number of white blood cells and the number of eosinophilic granulocytes: Wistar rats induced by DK-PGD2, compared with OC000459; for Eosinophilic granulocyte C (10^5/ml) / Eosinophilic granulocyte Inhibition rate / The total number of white blood cells: Wistar rats, 10 mg/Kg preventive dose 0.5 h before DK-PGD2, BALF after 24 h. The class given is in vivo. Set-up: The total number of white blood cells: unit not given here. The method, then:
Purpose: evaluation of inhibitory effects of the compounds on the total number of white blood cells and eosinophilia in airway of Wistar rats induced by DK-PGD2.
Process: observation on the drug therapeutic effect through preventive medication. Specific operation: After 0.5 h of administering a preventive dose, the administered group and model group were induced eosinophilia with 100 μL of DK-PGD2 by spray injection through airway of rats, the blank group was spray injected with a corresponding dose of normal saline; after 24 h of molding, the rats were killed by bloodletting from aorta abdominalis, exposing the airway and the chest, performing the trachea cannula, and the bronchial pulmonary alveoli were lavaged with 8 mL of 1% BSA in PBS in twice, the bronchoalveolar lavage fluids (BALF) were collected and placed in an ice-bath; after smear, the cells were differential counted. The concentration of DK-PGD2 mother liquor was 10 mg/mL, which was diluted 5 folds to get 2 mg/mL.

The next series concerns the target T1, CRTH2 receptor (Homo sapiens, UniProt Q9Y5Y4).
T1 construct: expressed in transfected cells; host or cells: CHO-K1/G cells
T1 sequence (Q9Y5Y4 1-395): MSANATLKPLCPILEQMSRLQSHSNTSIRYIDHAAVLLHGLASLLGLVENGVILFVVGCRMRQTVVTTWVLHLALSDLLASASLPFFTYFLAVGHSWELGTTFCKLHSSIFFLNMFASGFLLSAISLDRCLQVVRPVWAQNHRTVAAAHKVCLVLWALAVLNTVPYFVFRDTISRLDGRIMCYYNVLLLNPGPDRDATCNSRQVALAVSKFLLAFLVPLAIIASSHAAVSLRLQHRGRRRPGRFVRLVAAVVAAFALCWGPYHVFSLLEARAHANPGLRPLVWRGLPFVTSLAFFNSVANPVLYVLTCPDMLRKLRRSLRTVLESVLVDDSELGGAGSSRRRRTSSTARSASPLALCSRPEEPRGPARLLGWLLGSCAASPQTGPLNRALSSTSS
Nature of the series: FLIPR detection of inhibitory activity against CRTH2 (CHO-K1/G cells, PGD2 as agonist). The class given is cell-based. Particulars: CHO-K1/G cells with stable expression of CRTH2 receptor, PGD2 at EC80, FLIPR. The method, then:
The test compound was weighed accurately and then dissolved in a suitable amount of DMSO to prepare a stock solution at a concentration of 10 mM; after clear and transparent, the stock solution was subpackaged and cryostoraged at −20° C. for use. Before testing, the test compound was diluted with balanced salt solution (HBSS buffer, containing 4-(2-hydroxyethyl)piperazine-1-ethanesulfonicacid) at a concentration of 20 mM) to 5 times testing concentration.
CHO-K1/G cells with stable expression of CRTH2 receptor were prepared to 5 times testing concentration and seeded into 384-microwell plate, and incubated in an incubator at 37° C./5% CO2. After incubating for 18 hours, to the cells in 384-microwell plate was added 20 μL of dye followed by the addition of 10 μL of prepared test compound solution. And then the cell plate was incubated in the incubator at 37° C./5% CO2 for 1 hour, at last which was balanced at rt for 15 min. After adding 12.5 μL of positive agonist (PGD2) at a concentration of 5 times EC80 to each well of the cell plate, the RFU (fluorescence intensity) value of the test compound was detected.
The data were recorded from ScreenWorks (version 3.1), and collected and analyzed by using Excel and GraphPad Prism 6 software to calculate the values of IC50.

Series [2] deals with OVA (ovalbumin)-induced asthmatic model in rats. Put plainly: OVA (ovalbumin)-induced asthmatic model in rats, count of white blood cells in lung lavage. The class given is in vivo. Particulars: OVA-sensitized rats, gavage once a day for three days, lung lavage solution. Here is the method:
The experiment purpose was to assess the drug efficacy of the test compound in OVA (ovalbumin)-induced asthmatic model in rats.
Grouping the animal randomly to control group, model group and administered group. At the first, second and third day, the control group was administered with 1 mL of PBS (phosphate buffer solution) by intraperitoneal injection, and the model group and administered group were administered with a sensitization solution (prepared by mixing 6 mL of 1% OVA in phosphate buffer solution and 54 mL of alum solution at a ratio of 1:9) by intraperitoneal injection per day (1 mL per rat).
From the nineteenth day, the administered group was administered with the test compound at a certain dose by gavage, and the control group and model group was administered with the menstruum at a corresponding dose by gavage, once a day for three days. After 1 hour of administering each day, attacking the model group and administered group with 1% OVA in phosphate buffer solution and the control group with phosphate buffer solution for 20 min.
At the twenty-third day, the animals were anesthetized with 1% pentobarbital sodium (60 mg/Kg) by intraperitoneal injection. The blood samples were collected from aorta abdominalis under pentobarbital sodium anaesthesia into EDTA-K2 tubes. After tracheal intubation was performed, the lung of the animals were lavaged with 3 mL of PBS containing 1% FBS (Fetal Bovine Serum) once, and then lavaged with 5 mL of PBS containing 1% FBS at least two times; the volume of the combined lavage solutions were adjusted to 15 mL. The total cells in the lavage solution were counted by using a hemacytometer and a Trypan blue staining method and then white blood cells in the lavage solution were counted differentially.

Series [3] can be described thus: Hygroscopicity test by dynamic vapor sorption. Particulars: DVS, 25° C. The format is physicochemical. The method, then: The hygroscopicity disclosed herein is detected on a DVS INT-Std dynamic vapor and gas absorption analyzer (England Surface Measurement Systems Company) under the humidity ranged from 0% to 95%, the airflow rate is 200 mL/min, the temperature is 25° C., and one test point is provided per rising 5% humidity.
An appropriate amount of test sample was sampled, and the hygroscopicity of the test sample was detected on a dynamic vapor sorption instrument. The experiment results are as shown in table 7; the dynamic vapor sorption profiles of the crystalline form I of the compound represented by Formula (VI) is substantial the same as shown in FIG. 19.
The hygroscopic features and definition of hygroscopic weight gain are summarized in table 8 (deriving from Chinese Pharmacopoeia 2010, appendix XIX J: Guideline on pharmaceutical hygroscopicity test, test conditions: 25° C.±1° C., Relative Humidity 80%).

The AUC(0-inf) is total exposure, with the tail of the curve extrapolated. Usually AUC(0-t) stands for the area under the concentration-time curve up to a stated or last time point. In general, Cmax refers to the peak of the concentration-time curve. For orientation: half-life means the time in which the quantity being followed falls by half. One may read the IC50 as the concentration at which inhibition is half-maximal.

In the series “Detection of PK in rats” (iv, 0.4 mg/Kg), `Cc1c(C2CCC(NC(=O)c3ccc4ccccc4n3)CC2)c2cc(F)ccc2n1CC(=O)O.Cl` (single isomer, unassigned) [Example 6a, 2-(5-fluoro-2-methyl-3-(4-(quinoline-2-carboxamido)cyclohexyl)-1H-indol-1-yl)acetic acid hydrochloride] had an AUC(0-inf) of 2780 ng·h/mL, an AUC(0-t) of 2680 ng·h/mL, a Cmax of 2020 ng/mL and a half-life of 1.57 h. In the series “Detection of PK in rats” (po, p.o. (gavage), 1 mg/Kg), this compound showed an AUC(0-inf) of 5940 ng·h/mL, an exposure AUC(0-t) of 5670 ng·h/mL, a Cmax of 2110 ng/mL and a half-life of 2.86 h. For the same compound, in series [1], the “inhibitory effects on the total number of white blood cells and the number of eosinophilic granulocytes” value is listed as “stronger than those of OC000459”; the “Eosinophilic granulocyte C (10^5/ml)” value was 0.0568 ± 0.02^## 10^5/ml; the “Eosinophilic granulocyte Inhibition rate” value turned out to be 86.85%; the “The total number of white blood cells” value was 1.634 ± 0.30. For the same compound, the IC50 on CRTH2 receptor was 200 nM. Moreover, in series [2], the “Eosinophilic granulocyte Inhibition ratio” value turned out to be 33%, the “Eosinophilic granulocyte Number (×10^5/mL)” value is on record as 153.75 ×10^5/mL and the “Total number of white cells (×10^5/mL)” value is 247.350 ×10^5/mL.

With `Cc1c(C2CCC(NS(=O)(=O)c3ccc(F)cc3)CC2)c2cc(F)ccc2n1CC(=O)O` (single isomer, unassigned) [Example 27b, 2-(5-fluoro-3-(4-(4-fluorophenylsulfonamido)cyclohexyl)-2-methyl-1H-indol-1-yl)acetic acid], in “Detection of PK in rats” (iv, 0.4 mg/Kg), the AUC(0-inf) was 920 ng·h/mL, the AUC(0-t) stood at 883 ng·h/mL, the highest level (Cmax) was 802 ng/mL and the half-life was 1.58 h. Further, in “Detection of PK in rats” (po, p.o. (gavage), 1 mg/Kg), the AUC(0-inf) came to 1640 ng·h/mL, the AUC(0-t) was determined as 1600 ng·h/mL, the peak level (Cmax) was 631 ng/mL and the half-life was 1.33 h. Besides, in series [1], the “inhibitory effects on the total number of white blood cells and the number of eosinophilic granulocytes” value is “stronger than those of OC000459”; the “Eosinophilic granulocyte C (10^5/ml)” value is reported as 0.09597 ± 0.04^## 10^5/ml; the “Eosinophilic granulocyte Inhibition rate” value amounted to 76.76%; the “The total number of white blood cells” value is 1.986 ± 0.28. Moreover, the half-maximal inhibitory concentration (IC50) at CRTH2 receptor came to 57.3 nM. Also, in series [2], the “Eosinophilic granulocyte Inhibition ratio” value amounted to 38.55%, the “Eosinophilic granulocyte Number (×10^5/mL)” value is listed as 142.17 ×10^5/mL and the “Total number of white cells (×10^5/mL)” value is listed as 277.800 ×10^5/mL.

Consider `Cc1c(C2CCN(S(=O)(=O)c3ccc(F)cc3)CC2)c2cc(F)ccc2n1CC(=O)O` [Crystalline form I, 2-(5-fluoro-3-(1-((4-fluorophenyl)sulfonyl)piperidin-4-yl)-2-methyl-1H-indol-1-yl)acetic acid], for which, in series [3] (RH 80%), the “Weigh increase rate % under RH 80%” value is listed as 0.293%. For the same compound, the “Weigh increase rate % under RH 95%” value in series [3] (RH 95%) was 0.499%.

In “Detection of PK in rats” (iv, 0.4 mg/Kg), `Cc1c(C2CCN(S(=O)(=O)c3ccc(F)cc3F)CC2)c2cc(F)ccc2n1CC(=O)O` [Example 33, 2-(5-fluoro-3-(1-((2,4-difluorophenyl)sulfonyl)piperidin-4-yl)-2-methyl-1H-indol-1-yl)acetic acid] showed an AUC(0-inf) of 2500 ng·h/mL, an AUC(0-t) of 2440 ng·h/mL, a Cmax of 1300 ng/mL and a half-life of 4.5 h. Besides, in “Detection of PK in rats” (po, p.o. (gavage), 1 mg/Kg), the AUC(0-inf) is 4270 ng·h/mL, the AUC(0-t) amounted to 4090 ng·h/mL, the highest level (Cmax) was 1960 ng/mL and the half-life was 4.52 h. In addition, on CRTH2 receptor, the IC50 stood at 80.4 nM.

For `Cc1c(Cc2ccc3ccccc3n2)c2cc(F)ccc2n1CC(=O)O` [OC000459, reference compound], in series [1], the “Eosinophilic granulocyte C (10^5/ml)” value is given as 0.1192 ± 0.03^## 10^5/ml, the “Eosinophilic granulocyte Inhibition rate” value stood at 70.77% and the “The total number of white blood cells” value stood at 2.427 ± 0.25.
